{
  "source": "paper PMC4798913",
  "about": "(ACS chemical biology, 2015)",
  "key": {"[1]": {"target": "T1, PRMT9 (Homo sapiens, UniProt Q6P2P2)", "T1 sequence (Q6P2P2 1-845)": "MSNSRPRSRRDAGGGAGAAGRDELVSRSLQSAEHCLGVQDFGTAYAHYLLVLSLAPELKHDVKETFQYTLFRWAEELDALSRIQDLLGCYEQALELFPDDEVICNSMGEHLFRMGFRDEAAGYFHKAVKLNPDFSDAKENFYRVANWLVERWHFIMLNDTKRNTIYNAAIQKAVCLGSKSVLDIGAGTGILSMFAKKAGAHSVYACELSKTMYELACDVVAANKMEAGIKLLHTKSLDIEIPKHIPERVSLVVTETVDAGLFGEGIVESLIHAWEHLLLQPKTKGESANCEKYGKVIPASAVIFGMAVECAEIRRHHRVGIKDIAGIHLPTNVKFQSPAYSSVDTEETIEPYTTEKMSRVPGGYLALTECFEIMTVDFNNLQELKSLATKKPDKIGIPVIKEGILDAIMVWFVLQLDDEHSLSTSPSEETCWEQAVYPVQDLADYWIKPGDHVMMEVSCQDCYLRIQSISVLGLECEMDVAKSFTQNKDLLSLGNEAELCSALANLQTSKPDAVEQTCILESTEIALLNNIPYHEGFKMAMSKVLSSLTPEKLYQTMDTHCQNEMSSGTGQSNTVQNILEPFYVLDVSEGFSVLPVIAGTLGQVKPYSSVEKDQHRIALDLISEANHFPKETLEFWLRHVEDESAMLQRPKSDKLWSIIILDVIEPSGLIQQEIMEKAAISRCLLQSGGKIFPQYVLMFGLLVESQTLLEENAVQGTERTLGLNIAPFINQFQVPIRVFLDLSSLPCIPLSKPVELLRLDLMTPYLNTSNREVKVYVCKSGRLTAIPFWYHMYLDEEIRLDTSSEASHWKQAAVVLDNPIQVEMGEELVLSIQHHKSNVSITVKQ", "experiment": "PRMT biochemical scintillation proximity assay", "details": "for inhibition of type II PRMT (PRMT9): concentration not given"}, "[2]": {"target": "T2, PRMT7 (Homo sapiens, UniProt Q9NVM4)", "T2 sequence (Q9NVM4 1-692)": "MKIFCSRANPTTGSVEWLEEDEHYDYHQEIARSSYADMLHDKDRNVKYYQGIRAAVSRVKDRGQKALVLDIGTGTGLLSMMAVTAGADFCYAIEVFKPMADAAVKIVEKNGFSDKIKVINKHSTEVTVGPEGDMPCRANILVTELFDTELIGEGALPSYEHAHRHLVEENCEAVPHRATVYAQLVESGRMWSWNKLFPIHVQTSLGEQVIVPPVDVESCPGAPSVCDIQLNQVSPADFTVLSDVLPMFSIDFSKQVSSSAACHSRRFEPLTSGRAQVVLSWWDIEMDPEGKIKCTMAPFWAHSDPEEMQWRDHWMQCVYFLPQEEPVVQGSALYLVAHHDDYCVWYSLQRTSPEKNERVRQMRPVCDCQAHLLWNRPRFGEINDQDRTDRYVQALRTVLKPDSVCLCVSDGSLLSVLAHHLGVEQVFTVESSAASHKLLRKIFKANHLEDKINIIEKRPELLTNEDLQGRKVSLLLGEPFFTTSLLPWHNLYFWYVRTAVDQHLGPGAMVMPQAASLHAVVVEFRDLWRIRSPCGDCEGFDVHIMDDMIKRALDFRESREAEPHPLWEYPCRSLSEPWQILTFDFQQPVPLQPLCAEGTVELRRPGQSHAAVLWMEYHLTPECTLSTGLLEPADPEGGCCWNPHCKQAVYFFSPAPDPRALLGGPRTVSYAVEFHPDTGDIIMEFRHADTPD", "experiment": "PRMT biochemical scintillation proximity assay", "details": "for inhibition of type III PRMT (PRMT7): concentration not given"}, "[3]": {"target": "PRMT5 (Homo sapiens, UniProt O14744)", "sequence (O14744 whole entry)": "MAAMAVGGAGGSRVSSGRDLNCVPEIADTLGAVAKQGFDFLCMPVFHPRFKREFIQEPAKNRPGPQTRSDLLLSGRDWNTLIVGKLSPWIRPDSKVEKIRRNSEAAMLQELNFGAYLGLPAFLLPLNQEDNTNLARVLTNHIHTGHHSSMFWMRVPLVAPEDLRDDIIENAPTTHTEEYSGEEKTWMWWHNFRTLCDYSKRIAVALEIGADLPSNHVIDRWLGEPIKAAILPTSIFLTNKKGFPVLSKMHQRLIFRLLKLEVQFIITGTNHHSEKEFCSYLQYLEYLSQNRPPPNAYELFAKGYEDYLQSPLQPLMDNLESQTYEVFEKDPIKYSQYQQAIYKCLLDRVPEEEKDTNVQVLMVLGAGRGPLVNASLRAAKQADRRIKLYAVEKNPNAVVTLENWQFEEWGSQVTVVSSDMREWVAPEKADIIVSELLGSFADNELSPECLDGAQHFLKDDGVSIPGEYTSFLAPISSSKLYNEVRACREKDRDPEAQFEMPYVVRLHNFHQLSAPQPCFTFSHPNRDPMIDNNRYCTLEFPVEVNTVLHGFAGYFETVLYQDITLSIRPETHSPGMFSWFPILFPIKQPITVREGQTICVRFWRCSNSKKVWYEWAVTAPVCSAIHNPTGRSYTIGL", "sequence (Q9BQA1 whole entry partner)": "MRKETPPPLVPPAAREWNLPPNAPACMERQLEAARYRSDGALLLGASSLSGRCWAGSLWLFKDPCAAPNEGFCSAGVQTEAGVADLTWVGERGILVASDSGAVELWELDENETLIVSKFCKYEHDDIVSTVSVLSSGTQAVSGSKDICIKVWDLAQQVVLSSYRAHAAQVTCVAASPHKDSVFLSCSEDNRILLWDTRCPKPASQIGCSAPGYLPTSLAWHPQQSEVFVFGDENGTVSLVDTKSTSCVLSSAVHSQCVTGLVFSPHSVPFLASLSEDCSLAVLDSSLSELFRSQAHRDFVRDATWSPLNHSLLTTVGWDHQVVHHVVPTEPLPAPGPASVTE", "experiment": "PRMT biochemical scintillation proximity assay", "details": "for inhibition of type II PRMT (PRMT5): concentration not given"}, "[4]": {"test_system": "MCF7 cells", "experiment": "Global arginine methylation Western blot", "type": "cell-based", "details": "two days (48 h)"}, "[5]": {"target": "T3, PRMT1 (Homo sapiens, UniProt Q99873)", "T3 sequence (Q99873 whole entry)": "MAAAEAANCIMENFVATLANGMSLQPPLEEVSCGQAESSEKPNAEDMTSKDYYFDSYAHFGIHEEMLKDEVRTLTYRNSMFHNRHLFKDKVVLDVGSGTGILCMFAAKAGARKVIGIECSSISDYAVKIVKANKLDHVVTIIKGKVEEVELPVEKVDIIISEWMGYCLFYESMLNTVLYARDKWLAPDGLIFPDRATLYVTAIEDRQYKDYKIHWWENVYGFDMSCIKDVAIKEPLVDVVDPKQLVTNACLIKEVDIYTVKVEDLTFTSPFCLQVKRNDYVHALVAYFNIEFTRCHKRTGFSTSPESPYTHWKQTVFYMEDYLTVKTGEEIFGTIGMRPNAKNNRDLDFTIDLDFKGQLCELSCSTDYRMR", "experiment": "Cellular PRMT1 assay", "type": "cell-based", "details": "MCF7 cells, 48 h"}, "[6]": {"target": "T3, PRMT1", "experiment": "PRMT biochemical scintillation proximity assay", "details": "read-out: IC50 PRMT1; substrate at Km; triplicate, Mean ± SD; NI: no inhibition"}, "[7]": {"target": "T4, PRMT4 (Homo sapiens, UniProt Q86X55)", "T4 sequence (Q86X55 1-608)": "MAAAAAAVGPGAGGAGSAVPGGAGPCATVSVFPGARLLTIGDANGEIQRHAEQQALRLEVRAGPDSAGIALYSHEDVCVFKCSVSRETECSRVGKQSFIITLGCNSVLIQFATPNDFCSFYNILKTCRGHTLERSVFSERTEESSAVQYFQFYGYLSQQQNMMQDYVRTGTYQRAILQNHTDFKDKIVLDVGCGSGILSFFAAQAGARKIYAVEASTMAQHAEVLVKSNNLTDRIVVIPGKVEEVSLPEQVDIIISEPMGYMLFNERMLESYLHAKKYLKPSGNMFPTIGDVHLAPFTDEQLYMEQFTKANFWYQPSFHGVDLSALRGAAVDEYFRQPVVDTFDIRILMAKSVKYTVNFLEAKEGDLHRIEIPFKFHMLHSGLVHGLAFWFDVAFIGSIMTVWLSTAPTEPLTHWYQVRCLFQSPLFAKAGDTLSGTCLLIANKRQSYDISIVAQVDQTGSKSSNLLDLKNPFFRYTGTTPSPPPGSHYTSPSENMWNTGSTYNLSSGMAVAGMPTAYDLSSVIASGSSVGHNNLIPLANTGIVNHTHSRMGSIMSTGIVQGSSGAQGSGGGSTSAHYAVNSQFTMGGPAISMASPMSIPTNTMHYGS", "experiment": "PRMT biochemical scintillation proximity assay", "details": "read-out: IC50 PRMT4; substrate at Km; triplicate, Mean ± SD; NI: no inhibition"}, "[8]": {"target": "PRMT3 (Homo sapiens, UniProt O60678)", "sequence (O60678 whole entry)": "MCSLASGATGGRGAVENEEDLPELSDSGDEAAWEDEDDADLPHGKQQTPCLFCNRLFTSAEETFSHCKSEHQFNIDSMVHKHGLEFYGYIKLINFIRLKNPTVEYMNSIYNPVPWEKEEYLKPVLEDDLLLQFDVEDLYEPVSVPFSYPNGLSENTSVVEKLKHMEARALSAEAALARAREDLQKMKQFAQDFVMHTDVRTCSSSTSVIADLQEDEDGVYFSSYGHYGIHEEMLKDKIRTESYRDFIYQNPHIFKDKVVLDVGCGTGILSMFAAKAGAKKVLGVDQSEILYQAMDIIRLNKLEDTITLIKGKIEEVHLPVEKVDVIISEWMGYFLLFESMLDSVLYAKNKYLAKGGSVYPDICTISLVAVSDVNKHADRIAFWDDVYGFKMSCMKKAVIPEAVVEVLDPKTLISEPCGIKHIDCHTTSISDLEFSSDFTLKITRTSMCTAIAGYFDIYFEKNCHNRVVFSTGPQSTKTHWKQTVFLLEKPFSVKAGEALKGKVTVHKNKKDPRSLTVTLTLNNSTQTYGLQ", "experiment": "PRMT biochemical scintillation proximity assay", "details": "for IC50: read-out: IC50 PRMT3, substrate at Km, triplicate, Mean ± SD, NI: no inhibition"}, "[9]": {"test_system": "9 methyllysine or methylarginine reader proteins", "experiment": "DSF or DSLS binding to reader proteins"}, "[10]": {"test_system": "eight different cell lines", "experiment": "Cell growth assay", "type": "cell-based", "details": "96 h treatment"}, "[11]": {"test_system": "HEK293 cells", "experiment": "Cell growth assay", "type": "cell-based", "details": "1 μM, 4-day and long-term (10 days) treatment"}, "[12]": {"test_system": "25 PKMTs and DNMTs, and 3 histone lysine demethylases", "experiment": "Selectivity panel of methyltransferases and demethylases", "type": "biochemical", "details": "up to 10 μM (tested at 1 μM and 10 μM)"}, "[13]": {"test_system": "HEK293 cells", "experiment": "Global arginine methylation Western blot", "details": "two days"}, "[14]": {"target": "PRMT6 (Homo sapiens, UniProt Q96LA8)", "sequence (Q96LA8 whole entry)": "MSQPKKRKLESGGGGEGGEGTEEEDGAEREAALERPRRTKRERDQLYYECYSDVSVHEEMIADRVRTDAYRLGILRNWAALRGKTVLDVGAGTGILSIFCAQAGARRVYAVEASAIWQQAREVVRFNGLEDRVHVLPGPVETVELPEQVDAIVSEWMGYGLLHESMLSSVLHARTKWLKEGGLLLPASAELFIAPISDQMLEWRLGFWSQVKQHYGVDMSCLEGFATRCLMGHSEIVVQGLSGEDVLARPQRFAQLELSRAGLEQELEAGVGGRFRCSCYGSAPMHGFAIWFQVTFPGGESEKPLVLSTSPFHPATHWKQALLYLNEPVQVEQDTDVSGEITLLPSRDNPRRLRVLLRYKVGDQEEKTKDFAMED", "details": "100 μM SAM; PRMT6 alone Tm = 52 °C"}},
  "data": [
    {"smiles": "CN(CCN)Cc1n[nH]nc1-c1cccc(C(F)(F)F)c1", "note": "[Compound 1]", "values": [
      {"measurement": "inhibition of type II PRMT (PRMT9)", "setting": "[1]", "result": "did not inhibit"},
      {"measurement": "inhibition of type III PRMT (PRMT7)", "setting": "[2]", "result": "did not inhibit"},
      {"measurement": "inhibition of type II PRMT (PRMT5)", "setting": "[3]", "result": "did not inhibit"}
    ]},
    {"smiles": "CN(CCN)Cc1c[nH]cc1-c1cccc(C(F)(F)F)c1", "note": "[Compound 2]", "values": [
      {"measurement": "inhibition of type II PRMT (PRMT9)", "setting": "[1]", "result": "did not inhibit"},
      {"measurement": "inhibition of type III PRMT (PRMT7)", "setting": "[2]", "result": "did not inhibit"},
      {"measurement": "inhibition of type II PRMT (PRMT5)", "setting": "[3]", "result": "did not inhibit"}
    ]},
    {"smiles": "CC(C)Oc1ccc(-c2c[nH]cc2CN(C)CC(N)=O)cc1", "note": "[Compound 5]", "values": [
      {"measurement": "global levels of arginine asymmetric dimethylation (Rme2a)", "setting": "[4]", "result": "did not change"},
      {"measurement": "global levels of arginine monomethylation (Rme1)", "setting": "[4]", "result": "did not change"},
      {"measurement": "global levels of arginine symmetric dimethylation (Rme2s)", "setting": "[4]", "result": "did not change"},
      {"measurement": "effect on cellular levels of H4R3me2a", "setting": "[5]", "result": "did not decrease"},
      {"measurement": "IC50", "setting": "[6]", "result": "> 10", "unit": "µM"},
      {"measurement": "IC50", "setting": "[7]", "result": "> 10", "unit": "µM"},
      {"measurement": "IC50", "setting": "[8]", "result": "> 10", "unit": "µM"}
    ]},
    {"smiles": "CC(C)Oc1ccc(-c2c[nH]cc2C(=O)N(C)CCN)cc1", "note": "[Compound 6]", "values": [
      {"measurement": "global levels of arginine asymmetric dimethylation (Rme2a)", "setting": "[4]", "result": "did not change"},
      {"measurement": "global levels of arginine monomethylation (Rme1)", "setting": "[4]", "result": "did not change"},
      {"measurement": "global levels of arginine symmetric dimethylation (Rme2s)", "setting": "[4]", "result": "did not change"},
      {"measurement": "effect on cellular levels of H4R3me2a", "setting": "[5]", "result": "did not decrease"},
      {"measurement": "IC50", "setting": "[6]", "result": "> 10", "unit": "µM"},
      {"measurement": "IC50", "setting": "[7]", "result": "> 10", "unit": "µM"},
      {"measurement": "IC50", "setting": "[8]", "result": "> 10", "unit": "µM"}
    ]},
    {"smiles": "CC(C)Oc1ccc(-c2c[nH]cc2CN(C)CCN)cc1", "note": "[MS023]", "values": [
      {"measurement": "binding to 9 methyllysine or methylarginine reader proteins", "setting": "[9]", "result": "did not show binding"},
      {"measurement": "global levels of arginine asymmetric dimethylation (Rme2a)", "setting": "[4]", "result": "significant decrease"},
      {"measurement": "global levels of arginine monomethylation (Rme1)", "setting": "[4]", "result": "increase"},
      {"measurement": "global levels of arginine symmetric dimethylation (Rme2s)", "setting": "[4]", "result": "increase"},
      {"measurement": "effect on cell growth", "setting": "[10]; concentrations up to 1 μM, all lines except HEK293", "result": "did not significantly impact cell growth"},
      {"measurement": "effect on cell growth", "setting": "[10]; higher concentrations (e.g., 10 μM, 50 μM)", "result": "decreased cell growth in most of tested cell lines"},
      {"measurement": "effect on cell growth", "setting": "[11]", "result": "greatly affecting cell growth"},
      {"measurement": "inhibition of 25 PKMTs and DNMTs and 3 histone lysine demethylases", "setting": "[12]", "result": "did not inhibit"},
      {"measurement": "inhibition of PRMT9 (type II)", "setting": "[1]; concentrations up to 10 μM", "result": "did not inhibit"},
      {"measurement": "global levels of arginine asymmetric dimethylation (Rme2a)", "setting": "[13]", "result": "significant decrease"},
      {"measurement": "global levels of arginine monomethylation (Rme1)", "setting": "[13]", "result": "increase"},
      {"measurement": "global levels of arginine symmetric dimethylation (Rme2s)", "setting": "[13]", "result": "increase"},
      {"measurement": "pattern of inhibition (MOA) for PRMT3", "setting": "[8]; IC50 at different SAM and peptide concentrations", "result": "noncompetitive with the peptide substrate but uncompetitive with the cofactor SAM"},
      {"measurement": "inhibition of PRMT7 (type III)", "setting": "[2]; concentrations up to 10 μM", "result": "did not inhibit"},
      {"measurement": "inhibition of PRMT5 (type II)", "setting": "[3]; concentrations up to 10 μM", "result": "did not inhibit"}
    ]},
    {"smiles": "CC(C)Oc1ccc(-c2c[nH]cc2CN(C)CCO)cc1", "note": "[MS094]", "values": [
      {"measurement": "global levels of arginine asymmetric dimethylation (Rme2a)", "setting": "[4]", "result": "did not change"},
      {"measurement": "global levels of arginine monomethylation (Rme1)", "setting": "[4]", "result": "did not change"},
      {"measurement": "global levels of arginine symmetric dimethylation (Rme2s)", "setting": "[4]", "result": "did not change"},
      {"measurement": "effect on cellular levels of H4R3me2a", "setting": "[5]", "result": "did not decrease"},
      {"measurement": "IC50", "setting": "[6]", "result": "> 10", "unit": "µM"},
      {"measurement": "IC50", "setting": "[7]", "result": "> 10", "unit": "µM"},
      {"measurement": "IC50", "setting": "[8]", "result": "> 10", "unit": "µM"}
    ]},
    {"smiles": "C[S+](CC[C@H](N)C(=O)O)C[C@H]1O[C@@H](n2cnc3c(N)ncnc32)[C@H](O)[C@@H]1O", "note": "(stereo partly drawn) [SAM, S-5′-adenosyl-L-methionine]", "values": [
      {"measurement": "ΔTm PRMT6 (DSF)", "setting": "[14]", "result": 1.6, "unit": "°C"}
    ]}
  ]
}
